These are literature values, as cited in US8685448B2, “Pharmaceutical solid dosage form” (Laboratorios Del Dr. Esteve, S.A., priority 2009, dated 2014).

The conditions of this data set: background statement.

Molecules are shown by their SMILES. Counter-ions that a name gives are not always drawn.

Take `COc1ccc2nc([S@@+]([O-])Cc3ncc(C)c(OC)c3C)[nH]c2c1` [esomeprazol sodium salt, sodium salt of (−)-(S)-5-methoxy-2-[(4-methoxy-3,5-dimethylpyridin-2-yl)methylsulflnyl]-3H-benzoimidazole]: the solubility in water result is “extremely soluble in water”.
